{"source": "patent US20080188553A1", "about": "“NOVEL ASCORBIC ACID COMPOUNDS, METHODS OF SYNTHESIS AND APPLICATION USE THEREOF” (priority 2007, published 2008)", "origin": "cited, not measured here", "conditions": "relative to ascorbic acid; test conditions not given"}
{"molecule": "O=C1O[C@H]([C@@H](O)CO)C(O)=C1OS(=O)(=O)O", "note": "[L-ascorbate 2-sulphate]", "values": [{"measurement": "more stable than ascorbic acid", "result": 20, "unit": "times"}]}
